This series in a line: Loading potential / solubility of low solubility agents in PEG400/myristic acid vehicles, nitrite saturated PEG400 and water. The class given is physicochemical. Conditions: for dissolution in Sample 3 solvent system: Sample 3: 30 ml PEG400 + 0.75 grams MA; for dissolved material in aqueous solution: aqueous sample. How it is done:
Vehicles for loading the active ingredient were prepared as illustrated in samples 1-4. Myristic acid (solid flakes) was dissolved in PEG400 upon warming the mixture in a warm water bath. Shaking accelerated the formation of the resulting clear solution. The following four concentrations of myristic acid (MA) in PEG400 were prepared and evaluated. Samples 1, 2, 3 and 4 were all clear solutions when the samples were allowed to attain ambient temperatures.
The samples as vehicles were loaded with NO enhancing agent. […] Samples 1 and 2 were initially liquid but formed a solid uniform gel over a period of several hours. Sample 3 was prepared by dissolving 0.75 grams of MA in 30 ml's of PEG400 and heating in a water bath (˜60-80 C) for ˜15 minutes. Sample 4 was prepared by dissolving 2.25 grams of MA in 30 mls of PEG400 and heating in a water bath (˜60-80 C) for ˜15 minutes. Both sample 3 and sample 4 were uniform solutions when the heating cycle was finished. Upon cooling sample 3 remained liquid whereas sample 4 formed a uniform gel. […]
The Sample 3 solvent system was also tested as a vehicle for loading potential with the following low solubility reagents using the above method: quercetin, berberine, N-acetyl cysteine amide (NACA) and N-acetyl cysteine ethyl ester (NAC-ethylester).
The solutions of the two lipophilic NAC derivatives were prepared using sodium nitrite saturated PEG400, resulting in a clear solution. […] NAC is water soluble and the two derivatives are marginally soluble in water. The two solutions were then treated with several drops of acetic acid to trigger the formation of nitrous acid from the nitrite which can then nitrosate the reactive thiol on both of the NAC derivatives. The solutions turned pink indicative of S-nitrosothiol formation. The solutions remained pink for several days. The corresponding aqueous solutions lost color within hours. The use of nitrite saturated PEG400 allows for formulations that can be used to generate NO and S-nitrosothiols through mixing with reagents that acidify the mixture. A double frangible pouch incorporated into a patch may be used for a sustained NO delivery vehicle suitable for topical and transdermal applications.

Consider `COc1cc(/C=C/C(=O)CC(=O)/C=C/c2ccc(O)c(OC)c2)ccc1O` [Curcumin 95, curcumin], for which the “dissolving of the added curcumin” value (1.5 grams Curcumin 95 in Samples 1, 2, 3 (30 ml PEG400 + myristic acid), warmed, cooled to ambient) is “almost all of the added curcumin”.

Regarding `CC(=O)N[C@@H](CS)C(=O)O` [NAC, N-acetyl cysteine], the “solubility in sodium nitrite saturated PEG400” value is recorded as “limited solubility” and the solubility in water result is recorded as “water soluble”.

For the compound `CCOC(=O)[C@H](CS)NC(C)=O` [NAC-ethylester, N-acetyl cysteine ethyl ester], the “dissolution in Sample 3 solvent system” value is given as “substantial dissolution”.

As for `COc1ccc2cc3[n+](cc2c1OC)CCc1cc2c(cc1-3)OCO2` [berberine], the “dissolution in Sample 3 solvent system” value is reported as “substantial dissolution” and the “dissolved material in aqueous solution” value is “minimal dissolved material”.

For the compound `COc1cc(/C=C/C(=O)CC(=O)/C=C/c2ccc(O)c(OC)c2)ccc1O` [curcumin], under “same amount of curcumin in same volume of water (3 g in 30 ml)”, the “dissolution in water (colour of liquid phase)” value is “almost no color in the liquid phase”.

For `O=c1c(O)c(-c2ccc(O)c(O)c2)oc2cc(O)cc(O)c12` [quercetin], the solubility of quercetin is recorded as 200-300 mg in 30 ml, the “solubilization in Sample 3” value is “high degree of solubilization”, the “dissolution in Sample 3 solvent system” value was “substantial dissolution” and the “dissolved material in aqueous solution” value is “minimal dissolved material”.

On to N-acetyl cysteine amide [NACA], for which the “dissolution in Sample 3 solvent system” value was “substantial dissolution”.
